Experimental data from patent publication US8753680B2, “Capsule for the prevention of cardiovascular diseases” (Ferrer Internacional S.A., priority 2008, dated 2014).

Key:
[1] = general statement, no test described; cited from earlier work
[2] = Degradation of acetylsalicylic acid by moisture; format: physicochemical; details: found in the course of the investigation
Excerpt: Subsequent acetylsalicylic acid sublimation occurs on the surface of ACE inhibitor tablets thus inducing its chemical degradation. A partially hydrolysed polyvinyl alcohol coating film (Opadry AMB™, Colorcon) has been found useful for protecting both acetylsalicylic acid and the ACE inhibitor tablets because of its moisture barrier properties. HMG-CoA reductase inhibitor tablets in the present invention may be coated with a coloured film, such as a hydroxypropylmethyl cellulose comprising film (Opadry Orange™, Colorcon) to hide darkened appearance. Opadry AMB coatings also may comprise one or more than one pigment.

SMILES | Solubility in water [1] | Degradation due to moisture [2]
CCC[C@H](N[C@@H](C)C(=O)N1[C@H](C(=O)O)C[C@@H]2CCCC[C@@H]21)C(=O)OCC [perindopril, 1-ethylic ester of (2S,3aS,7aS)-1-[(S)-N-[(S)-1-carboxybutyl]alanyl]hexahydro-2-indolinecarboxylic acid] | freely soluble in water | –
CC(=O)Oc1ccccc1C(=O)O [acetylsalicylic acid] | – | degrades to salicylic acid due to moisture
NCCCC[C@H](N[C@@H](CCc1ccccc1)C(=O)O)C(=O)N1CCC[C@H]1C(=O)O [lisinopril, 1-[N^2-[(S)-1-carboxy-3-phenylpropyl]-L-lysyl]-L-proline] | one of the most soluble in water | –
